Data as given in PubChem BioAssay (NCI).
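All cell lines were grown in 96-well plates and treated with compound for 48 hours. At the GI50, growth is halved. TGI denotes the concentration required for complete inhibition of growth.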

Tests used:
Test in all cases: DTP human tumour cell line panel, 48 h
[1] = tested on: LOX IMVI melanoma
[2] = tested on: HCT-116 colon
[3] = tested on: NCI-H460 lung
[4] = tested on: HL-60(TB) leukemia
[5] = tested on: UACC-62 melanoma
[6] = tested on: MDA-MB-435
[7] = tested on: NCI-H23 lung
[8] = tested on: HCC-2998 colon
[9] = tested on: SNB-75 CNS
[10] = tested on: SF-295 CNS

CC(=O)OC1CCC2(C)C(CCC3C4CC=C(C(C)=O)C4(C)OC(=O)CC32)C1 (configuration not stated)
GI50 [1]: 1.61 µM
TGI [1]: 3.17 µM
GI50 [2]: 1.13 µM
TGI [2]: 2.62 µM
GI50 [3]: 5.02 µM
TGI [3]: 19.3 µM
GI50 [4]: 2.05 µM
TGI [4]: 5.05 µM
GI50 [5]: 1.72 µM
TGI [5]: 3.53 µM
GI50 [6]: 1.71 µM
TGI [6]: 4.66 µM
GI50 [7]: 2.9 µM
TGI [7]: 10.6 µM
GI50 [8]: 2.21 µM
TGI [8]: 4.06 µM

CCOC(=O)c1ccc(Nc2sc(C(=O)c3cccc([N+](=O)[O-])c3)c(N)c2C#N)cc1
GI50 [9]: 0.116 µM
TGI [9]: 0.65 µM
GI50 [1]: 0.148 µM
TGI [1]: 15.4 µM
GI50 [10]: 0.0228 µM
TGI [10]: 0.102 µM
GI50 [2]: 0.0505 µM
TGI [2]: 4.17 µM
GI50 [3]: 0.0519 µM
TGI [3]: 4.14 µM
GI50 [5]: 0.0789 µM
TGI [5]: 23.4 µM
GI50 [6]: 0.0309 µM
TGI [6]: 0.264 µM
GI50 [7]: 0.425 µM
TGI [7]: 22.6 µM
GI50 [8]: 2.78 µM
TGI [8]: > 100 µM

Cc1ncc(C(=O)Nc2ccc(CN3CCN(C)CC3)c(C(F)(F)F)c2)cc1C#Cc1cnc(N)c2ncccc12
GI50 [9]: 0.3 µM
TGI [9]: 2.26 µM
GI50 [10]: 1.26 µM
TGI [10]: 10.6 µM
GI50 [2]: 0.218 µM
TGI [2]: 2.4 µM
GI50 [3]: 0.0869 µM
TGI [3]: 2.15 µM
GI50 [4]: 0.164 µM
TGI [4]: 7.67 µM
GI50 [5]: 0.0276 µM
TGI [5]: 1.31 µM
GI50 [6]: 0.0419 µM
TGI [6]: 1.58 µM
GI50 [7]: 0.841 µM
TGI [7]: 3.3 µM

N#CSCc1c(Cl)cccc1Cl
GI50 [9]: 20.2 µM
TGI [9]: > 100 µM
GI50 [1]: 3.55 µM
TGI [1]: > 100 µM
GI50 [10]: 16.2 µM
TGI [10]: > 91.4 µM
GI50 [2]: 2.92 µM
TGI [2]: > 39.3 µM
GI50 [3]: 4.29 µM
TGI [3]: > 53.4 µM
GI50 [5]: 5.18 µM
TGI [5]: > 67.4 µM
GI50 [6]: 2.11 µM
TGI [6]: 5.63 µM
GI50 [7]: 5.41 µM
TGI [7]: > 100 µM
GI50 [8]: 4.19 µM
TGI [8]: 45.2 µM

C#C[C@@]1(O)[C@@H](CO)O[C@@H](n2ccc3c(N)ncnc32)[C@@H]1O
GI50 [1]: 0.667 µM
TGI [1]: 2.05 µM
GI50 [10]: 1.73 µM
TGI [10]: 5.33 µM
GI50 [2]: 0.595 µM
TGI [2]: 10.8 µM
GI50 [3]: 0.473 µM
TGI [3]: 10.6 µM
GI50 [4]: 1.57 µM
TGI [4]: 5.49 µM
GI50 [5]: 1.79 µM
TGI [5]: 4.48 µM
GI50 [6]: 1.48 µM
TGI [6]: 3.49 µM
GI50 [7]: 1.18 µM
TGI [7]: 4.32 µM
GI50 [8]: 1.45 µM
TGI [8]: 3.12 µM

O=C1c2cc3c(cc2[C@@H]2[C@H]1c1ccc([N+](=O)[O-])cc1C(=O)N2CCCCl)OCO3
GI50 [9]: < 0.0253 µM
TGI [9]: > 100 µM
GI50 [1]: < 0.01 µM
TGI [1]: < 0.01 µM
GI50 [10]: < 0.01 µM
TGI [10]: 11.4 µM
GI50 [2]: < 0.01 µM
TGI [2]: 15.7 µM
GI50 [3]: < 0.01 µM
TGI [3]: 13.6 µM
GI50 [5]: < 0.01 µM
TGI [5]: < 0.0171 µM
GI50 [6]: < 0.01 µM
TGI [6]: < 0.0422 µM
GI50 [7]: < 0.01 µM
TGI [7]: 0.0398 µM
GI50 [8]: 0.0164 µM
TGI [8]: 0.568 µM

COc1ccc(/C=C/C(=O)c2ccc3cc(OC)c(OC)cc3c2)cc1OC
GI50 [1]: 2.95 µM
TGI [1]: 11.2 µM
GI50 [2]: 2.64 µM
TGI [2]: > 100 µM
GI50 [3]: 3.35 µM
TGI [3]: 12.5 µM
GI50 [4]: 3.46 µM
TGI [4]: 10.1 µM
GI50 [5]: 3.71 µM
TGI [5]: 16.9 µM
GI50 [6]: 3.06 µM
TGI [6]: 18.1 µM
GI50 [7]: 6.9 µM
TGI [7]: 32 µM
GI50 [8]: 3.92 µM
TGI [8]: 13.9 µM

NC(CSc1nc2ccccn2c1[N+](=O)[O-])C(=O)O (configuration not stated)
TGI [9]: > 100 µM
TGI [10]: > 100 µM
TGI [2]: > 100 µM
TGI [3]: > 100 µM
TGI [5]: > 100 µM
TGI [6]: > 100 µM
TGI [7]: > 100 µM
TGI [8]: > 100 µM

O=C(O)C[O][Sb][O]CC(=O)O
GI50 [9]: > 100 µM
TGI [9]: > 100 µM
GI50 [1]: > 100 µM
TGI [1]: > 100 µM
GI50 [10]: > 100 µM
TGI [10]: > 100 µM
GI50 [2]: > 100 µM
TGI [2]: > 100 µM
GI50 [3]: > 100 µM
TGI [3]: > 100 µM
GI50 [5]: > 100 µM
TGI [5]: > 100 µM
GI50 [6]: > 100 µM
TGI [6]: > 100 µM
GI50 [7]: > 100 µM
TGI [7]: > 100 µM

N#Cc1cccc(/C=C(/C(=O)c2ccccc2)c2ccccc2)c1
GI50 [9]: 4.69 µM
TGI [9]: 17.5 µM
GI50 [1]: 2.89 µM
TGI [1]: 10.2 µM
GI50 [10]: 4.23 µM
TGI [10]: 17.1 µM
GI50 [2]: 3.06 µM
TGI [2]: 11.3 µM
GI50 [3]: 3.85 µM
TGI [3]: 19.6 µM
GI50 [5]: 4.1 µM
TGI [5]: 24.6 µM
GI50 [6]: 3 µM
TGI [6]: 11 µM
GI50 [7]: 3.52 µM
TGI [7]: 17.1 µM
GI50 [8]: 3.15 µM
TGI [8]: 9.35 µM

CC[C@H](C)[C@H](NC(=O)Nc1ccccc1)C(=O)N(C)[C@H](C[C@@H](OC(C)=O)c1nc(C(=O)N[C@@H](Cc2ccccc2)C[C@H](C)C(=O)OC)cs1)C(C)C
GI50 [1]: 4.76 µM
TGI [1]: > 100 µM
GI50 [10]: 2.76 µM
TGI [10]: > 100 µM
GI50 [2]: 3.33 µM
TGI [2]: > 100 µM
GI50 [3]: 2.83 µM
TGI [3]: > 100 µM
GI50 [5]: 1.27 µM
TGI [5]: > 100 µM
GI50 [6]: 0.416 µM
TGI [6]: 1.86 µM
GI50 [7]: 5.8 µM
TGI [7]: > 100 µM
GI50 [8]: 3.48 µM
TGI [8]: > 100 µM

CN(C)CCNC(=O)Cn1ccc(=O)c2ccc([N+](=O)[O-])cc21
TGI [1]: > 100 µM
TGI [10]: > 100 µM
TGI [2]: > 100 µM
TGI [3]: > 100 µM
TGI [4]: > 100 µM
TGI [5]: > 100 µM
TGI [6]: > 100 µM
TGI [7]: > 100 µM
TGI [8]: > 100 µM
